Measured values from patent publication US11753407B2, “Compounds for treating spinal muscular atrophy” (PTC Therapeutics, Inc., priority 2012, dated 2023).

Key:
[1] = tested on: Smn protein in SMA patient fibroblast cells (GM03813); test: Smn protein assay in cultured cells (SMN HTRF); assay type: cell-based, human; details: SMA patient fibroblast cells, 48 hours; for EC1.5x for Smn protein expression: 7-point concentration curve, SMN HTRF, concentration producing 1.5 times Smn protein vs DMSO vehicle control; for maximum fold (Fold) increase of Smn protein: 7-point concentration data, fold relative to vehicle control
Procedure: The SMN HTRF (homogeneous time resolved fluorescence) assay is used to quantify the level of Smn protein in SMA patient fibroblast cells treated with test compounds.
Protocol. Cells are thawed and cultured in DMEM-10% FBS for 72 hours. Cells are trypsinized, counted and re-suspended to a concentration of 25,000 cells/mL in DMEM-10% FBS. The cell suspension is plated at 5,000 cells per well in a 96 well microtiter plate and incubated for 3 to 5 hours. […] Test compounds are serially diluted 3.16-fold in 100% DMSO to generate a 7-point concentration curve. 1 μL of test compound solution is transferred to cell-containing wells and cells are incubated for 48 hours in a cell culture incubator (37° C., 5% CO2, 100% relative humidity). Triplicate samples are set up for each test compound concentration. After 48 hours, the supernatant is removed from the wells and 25 μL of the RIPA lysis buffer, containing protease inhibitors, is added to the wells and incubated with shaking at room temperature for 1 hour. 25 μL of the diluent is added and then 35 μL of the resulting lysate is transferred to a 384-well plate, where each well contains 5 μL of the antibody solution (1:100 dilution of anti-SMN d2 and anti-SMN kryptate in SMN reconstitution buffer). The plate is centrifuged for 1 minute to bring the solution to the bottom of the wells, then incubated overnight at room temperature. Fluorescence for each well of the plate at 665 nm and 620 nm is measured on an EnVision multilabel plate reader (Perkin-Elmer).
The normalized fluorescence signal is calculated for each sample, Blank and vehicle control well by dividing the signal at 665 nm by the signal at 620 nm. Normalizing the signal accounts for possible fluorescence quenching due to the matrix effect of the lysate. The ΔF value (a measurement of Smn protein abundance as a percent value) for each sample well is calculated by subtracting the normalized average fluorescence for the Blank control wells from the normalized fluorescence for each sample well, then dividing this difference by the normalized average fluorescence for the Blank control wells and multiplying the resulting value by 100. The ΔF value for each sample well represents the Smn protein abundance from test compound-treated samples. The ΔF value for each sample well is divided by the ΔF value for the vehicle control wells to calculate the fold increase in Smn protein abundance relative to the vehicle control.
For compounds of Formula (I) or a form thereof disclosed herein, Table 9 provides the EC1.5× for Smn protein expression that was obtained from the 7-point concentration data generated for each test compound according to the procedure of Biological Example 7. The term “EC1.5× for Smn protein expression” is defined as that concentration of test compound that is effective in producing 1.5 times the amount of Smn protein in an SMA patient fibroblast cell compared to the amount produced from the DMSO vehicle control. An EC1.5× for Smn protein expression between >3 μM and ≤10 μM is indicated by one star (*), an EC1.5× between >1 μM and ≤3 μM is indicated by two stars (**), an EC1.5× between >0.3 μM and ≤1 μM is indicated by three stars (***) and an EC1.5x≤0.3 μM is indicated by four stars (****).
For compounds of Formula (I) or a form thereof disclosed herein, Table 10 provides the maximum fold (Fold) increase of Smn protein that was obtained from the 7-point concentration data generated for each test compound according to the procedure of Biological Example 7. A maximum fold increase of ≤1.2 is indicated by one star (*), a fold increase between >1.2 and ≤1.35 is indicated by two stars (**), a fold increase between >1.35 and ≤1.5 is indicated by three stars (***), a fold increase between >1.5 and ≤1.65 is indicated by four stars (****) and a fold increase >1.65 is indicated by five stars (*****).

[2] = tested on: SMN2 minigene mRNA (SMN2-A minigene) in HEK293H cells; test: SMN2 minigene mRNA splicing RT-qPCR assay in cultured cells; assay type: cell-based, human; details: Homo sapiens, HEK293-H; concentration increasing full length SMN2 mRNA 1.5-fold relative to vehicle-treated cells; HEK293H cells with SMN2-A minigene, 24 hours, 7-point concentration data; read-out: EC1.5x for production of full length SMN2 mRNA
Procedure: The reverse transcription-quantitative PCR-based (RT-qPCR) assay is used to quantify the level of the full length SMN2 minigene mRNA containing SMN2 exon 7 in a HEK293H cell line stably transfected with said minigene and treated with a test compound.
Protocol. HEK293H cells stably transfected with the SMN2-A minigene construct described above (10,000 cells/well) are seeded in 200 μL of cell culture medium (DMEM plus 10% FBS, with 200 μg/mL hygromycin) in 96-well flat-bottom plates and the plate is immediately swirled to ensure proper dispersal of cells, forming an even monolayer of cells. Cells are allowed to attach for at least 4-6 hours. Test compounds are serially diluted 3.16-fold in 100% DMSO to generate a 7-point concentration curve. A solution of test compound (1 μL, 200× in DMSO) is added to each cell-containing well and the plate is incubated for 24 hours in a cell culture incubator (37° C., 5% CO2, 100% relative humidity). 2 replicates are prepared for each test compound concentration. The cells are then lysed in Cells-To-Ct lysis buffer and the lysate is stored at −80° C.
Primer SMN Forward A (SEQ ID NO. 1) hybridizes to a nucleotide sequence in exon 7 (nucleotide 22 to nucleotide 40), primer SMN Reverse A (SEQ ID NO. 2) hybridizes to a nucleotide sequence in the coding sequence of Firefly luciferase, SMN Probe A (SEQ ID NO. 3) hybridizes to a nucleotide sequence in exon 7 (nucleotide 50 to nucleotide 54) and exon 8 (nucleotide 1 to nucleotide 21). The combination of these three oligonucleotides detects only SMN1 or SMN2 minigenes (RT-qPCR) and will not detect endogenous SMN1 or SMN2 genes.
The SMN forward and reverse primers are used at final concentrations of 0.4 μM. The SMN probe is used at a final concentration of 0.15 μM. The GAPDH primers are used at final concentrations of 0.2 μM and the probe at 0.15 μM.
The SMN2-minigene GAPDH mix (15 μL total volume) is prepared by combining 7.5 μL of 2× RT-PCR buffer, 0.4 μL of 25× RT-PCR enzyme mix, 0.75 μL of 20× GAPDH primer-probe mix, 4.0075 μL of water, 2 μL of 10-fold diluted cell lysate, 0.06 μL of 100 μM SMN forward primer, 0.06 μL of 100 μM SMN reverse primer, and […].
PCR is carried out at the following temperatures for the indicated time: Step 1: 48° C. (15 min); Step 2: 95° C. (10 min); Step 3: 95° C. (15 sec); Step 4: 60° C. (1 min); then repeat Steps 3 and 4 for a total of 40 cycles.
Each reaction mixture contains both SMN2-A minigene and GAPDH primers/probe sets (multiplex design), allowing simultaneous measurement of the levels of two transcripts.
Two SMN spliced products are generated from the SMN2 minigene. The first spliced product containing exon 7, corresponding to full length SMN2 mRNA, is referred to herein using the term “SMN2 minigene FL.” The second spliced product lacking exon 7 is referred to herein using the term “SMN2 minigene Δ7.”
The increase of SMN2 minigene FL mRNA relative to that in cells treated with vehicle control is determined from real-time PCR data using a modified ΔΔCt method (as described in Livak and Schmittgen, Methods, 2001, 25:402-8). The amplification efficiency (E) is calculated from the slope of the amplification curve for SMN2 minigene FL and GAPDH individually. The abundances of SMN2 minigene FL and GAPDH are then calculated as (1+E)^−Ct, where Ct is the threshold value for each amplicon. The abundance of SMN2 minigene FL is normalized to GAPDH abundance. The normalized SMN2 minigene FL abundance from test compound-treated samples is then divided by normalized SMN2 minigene FL abundance from vehicle-treated cells to determine the level of SMN2 FL mRNA relative to vehicle control.
For compounds of Formula (I) or a form thereof disclosed herein, Table 4 provides the […] for production of full length SMN2 mRNA that was obtained from the 7-point concentration data generated for each test compound according to the procedure of Biological Example 2. […]

Structure (SMILES)	EC1.5x for Smn protein expression [1]	maximum fold (Fold) increase of Smn protein [1]	EC (1.5-fold increase) [2] [µM]
Cc1cn2nc(-c3cc(=O)n4cc(N5C[C@@H](C)N[C@@H](C)C5)ccc4n3)cc2c(C)n1 [Compound 131, 7-[(3R,5S)-3,5-dimethylpiperazin-1-yl]-2-(4,6-dimethylpyrazolo[1,5-a]pyrazin-2-yl)-4H-pyrido[1,2-a]pyrimidin-4-one]	** (an EC1.5× between >1 μM and ≤3 μM is indicated by two stars (**))	*** (a fold increase between >1.35 and ≤1.5 is indicated by three stars (***))	< 0.1
Cc1cn2nc(-c3cc(=O)n4cc(N5CCCNCC5)ccc4n3)cc2c(C)n1 [Compound 132, 7-(1,4-diazepan-1-yl)-2-(4,6-dimethylpyrazolo[1,5-a]pyrazin-2-yl)-4H-pyrido[1,2-a]pyrimidin-4-one]	**** (an EC1.5x≤0.3 μM is indicated by four stars (****))	***** (a fold increase >1.65 is indicated by five stars (*****))	< 0.1
COc1cc(-c2cc(=O)n3cc(N4CCNCC4)ccc3n2)cc(F)c1OC [Compound 145, 2-(3-fluoro-4,5-dimethoxyphenyl)-7-(piperazin-1-yl)-4H-pyrido[1,2-a]pyrimidin-4-one]	–	* (A maximum fold increase of ≤1.2 is indicated by one star (*))	1 to 3
Cc1nc2cc(-c3cc(=O)n4cc(N5CCN[C@@H](C)C5)ccc4n3)ccc2o1 [Compound 156, 2-(2-methyl-1,3-benzoxazol-5-yl)-7-[(3S)-3-methylpiperazin-1-yl]-4H-pyrido[1,2-a]pyrimidin-4-one]	–	*** (a fold increase between >1.35 and ≤1.5 is indicated by three stars (***))	0.3 to 1
COc1ccc(-c2cc(=O)n3cc(N4CCNCC4)cc(C)c3n2)cc1OC [Compound 160, 2-(3,4-dimethoxyphenyl)-9-methyl-7-(piperazin-1-yl)-4H-pyrido[1,2-a]pyrimidin-4-one]	*** (an EC1.5× between >0.3 μM and ≤1 μM is indicated by three stars (***))	*** (a fold increase between >1.35 and ≤1.5 is indicated by three stars (***))	< 0.1
COc1ccc(-c2cc(=O)n3cc(NC4CCNCC4)ccc3n2)cc1OC [Compound 187, 2-(3,4-dimethoxyphenyl)-7-(piperidin-4-ylamino)-4H-pyrido[1,2-a]pyrimidin-4-one]	–	** (a fold increase between >1.2 and ≤1.35 is indicated by two stars (**))	1 to 3
Cn1cc(-c2cc(=O)n3cc(N4CCNCC4)ccc3n2)cn1 [Compound 192, 2-(1-methyl-1H-pyrazol-4-yl)-7-(piperazin-1-yl)-4H-pyrido[1,2-a]pyrimidin-4-one]	** (an EC1.5× between >1 μM and ≤3 μM is indicated by two stars (**))	***** (a fold increase >1.65 is indicated by five stars (*****))	1 to 3
COc1ccc(-c2cc(=O)n3cc(N4CCC(N)CC4)ccc3c2)cc1F [Compound 201, 7-(4-aminopiperidin-1-yl)-2-(3-fluoro-4-methoxyphenyl)-4H-quinolizin-4-one]	*** (an EC1.5× between >0.3 μM and ≤1 μM is indicated by three stars (***))	*** (a fold increase between >1.35 and ≤1.5 is indicated by three stars (***))	< 0.1
COc1ccc(-c2cc(=O)n3cc(N4CCC(N(C)C)CC4)ccc3c2)cc1F [Compound 203, 7-[4-(dimethylamino)piperidin-1-yl]-2-(3-fluoro-4-methoxyphenyl)-4H-quinolizin-4-one]	–	* (A maximum fold increase of ≤1.2 is indicated by one star (*))	1 to 3
COc1ccc(-c2cc(=O)n3cc(OC4CCN(C)CC4)ccc3n2)cc1OC [Compound 235, 2-(3,4-dimethoxyphenyl)-7-[(1-methylpiperidin-4-yl)oxy]-4H-pyrido[1,2-a]pyrimidin-4-one]	** (an EC1.5× between >1 μM and ≤3 μM is indicated by two stars (**))	**** (a fold increase between >1.5 and ≤1.65 is indicated by four stars (****))	0.3 to 1
